Reference: patent US20240368170A1, “CINNOLINE COMPOUNDS AND USES THEREOF” (Genentech, Inc., priority 2018, published 2024)

Molecular target: HPK full length, T165E S171E (Homo sapiens (Human), UniProt Q92918, S171E/T165E)
Experiment: HPK1-FL HTRF Enzymatic Assay ("HTRF")
Type: biochemical
Conditions: H = HTRF; ATP 1 mM
Procedure: Example BI: HPK1-FL HTRF Enzymatic Assay (“HTRF”)
HPK-FL enzyme phosphorylates Biotin-SLP-76 substrate in the presence of ATP at 1 mM and varying concentrations of test compound. Product is detected by FRET using Eu-anti-pSLP76 Ab and SA-XL665. Also see www.cisbio.com/HTRF for additional HTRF technology information.
• Assay plate: White ProxiPlate 384 F (PerkinElmer cat #6008289) • Kinase: HPK full length double mutant • Substrate: Biotin-SLP76 • ATP: 100 mM ATP • BSG: 2% BSG • DMSO: DMSO (Sigma cat #34869-100ML) • Reaction Buffer: H2O/50 mM HEPES, pH 7.5/10 mM MgCl2/2 mM TCEP/0.01% Brij-35/0.01% BSG • Detection mix: Eu-anti-pSLP76/SA-XL665 (Cisbio, #610SAXAC)
To a 384 well Proxiplate with 80 nL compound or DMSO spotted on was added 4 μl/well kinase mix. The mixture was preincubated for 30 minutes and then 4 μl/well substrate mix was added. The solution was incubated for 60 min and then 4 μl/well detection mix was added. The solution was incubated for another 60 min. The plates were then loaded onto a Perkin Elmer Envision and the TR-FRET signal was measured at 615 and 665 nm. A ratio of […] was used to calculate the % activity at each concentration of compound.

HPK full length, T165E S171E, sequence (Q92918 whole entry T165E/S171E): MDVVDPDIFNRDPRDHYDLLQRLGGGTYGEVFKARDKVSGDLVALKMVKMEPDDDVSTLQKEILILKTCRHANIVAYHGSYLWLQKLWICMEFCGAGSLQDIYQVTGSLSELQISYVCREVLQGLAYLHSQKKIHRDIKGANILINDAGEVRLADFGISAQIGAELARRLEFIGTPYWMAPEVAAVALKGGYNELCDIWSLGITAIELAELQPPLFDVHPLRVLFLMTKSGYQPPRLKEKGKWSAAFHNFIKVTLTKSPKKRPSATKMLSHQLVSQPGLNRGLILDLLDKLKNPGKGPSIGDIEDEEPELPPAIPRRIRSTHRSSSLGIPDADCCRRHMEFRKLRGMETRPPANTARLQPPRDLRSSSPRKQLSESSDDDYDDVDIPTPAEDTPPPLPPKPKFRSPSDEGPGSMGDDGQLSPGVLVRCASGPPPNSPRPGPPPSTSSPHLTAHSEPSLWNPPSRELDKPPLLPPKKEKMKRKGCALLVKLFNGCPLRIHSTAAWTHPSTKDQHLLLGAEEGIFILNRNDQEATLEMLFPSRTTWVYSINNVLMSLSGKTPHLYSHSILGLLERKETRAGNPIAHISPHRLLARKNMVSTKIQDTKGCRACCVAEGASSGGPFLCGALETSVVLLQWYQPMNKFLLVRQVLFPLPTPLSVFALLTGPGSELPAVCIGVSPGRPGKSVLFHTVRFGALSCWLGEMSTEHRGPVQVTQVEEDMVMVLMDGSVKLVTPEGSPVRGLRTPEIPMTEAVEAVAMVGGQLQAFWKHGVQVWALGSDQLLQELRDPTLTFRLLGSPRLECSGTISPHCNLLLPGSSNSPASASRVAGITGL

Row | Ki | Structure (SMILES)
1 | 40 nM | Cc1c(N)cncc1-c1ccc2nnc(Nc3cc4n(n3)CC(=O)N(C(C)C)CC4)cc2c1 [Compound 28, 2-((6-(5-Amino-4-methylpyridin-3-yl)cinnolin-3-yl)amino)-6-isopropyl-5,6-dihydro-4H-pyrazolo[1,5-d][1,4]diazepin-7(8H)-one]
2 | 0.098 nM | Cc1c(N)cncc1-c1cc(N)c2nnc(Nc3cc4n(n3)CC(=O)N(C(C)C)CC4)cc2c1 [Compound 29, 2-((8-Amino-6-(5-amino-4-methylpyridin-3-yl)cinnolin-3-yl)amino)-6-isopropyl-5,6-dihydro-4H-pyrazolo[1,5-d][1,4]diazepin-7(8H)-one]

Molecular target: HPK1 (Homo sapiens, UniProt Q92918)
Experiment: HPK1 Lantha Binding Assay ("Lanth")
Conditions: L = Lanth
Procedure: Example B2: HPK1 Lantha Binding Assay (“Lanth”)
For the reference compound, the top concentration was 1 mM. To the plate was added 10 μL 2 mM staurosporine in wells J1-P1 and A24-H24. A 11 point 5-fold compound serial dilution was performed using the Bravo liquid handling platform. […] The compound plate was centrifuged at 2500 rpm for 1 min. From the compound plate was transferred 80n1 of the compounds into an assay plate using the Echo liquid handler system. One compound plate makes two assay plates. Each assay plate is sealed and stored in an N2 cabinet.
The following assay concentrations and times were used: 2 nM HPK1, 2 nM Eu-Anti-GST Ab, and 15 nM Tracer222, with 60 min incubation time.
For the binding assay, 4 μL 2×HPK1 and Eu-anti-GST antibody were added to each well of the assay plate using a Multidrop reagent dispenser. The solutions were incubated in a 23 C incubator for 1 h. To each well of the assay plate was added 4 μL 2× Tracer-222 using a Multidrop reagent dispenser. The solutions were again incubated in a 23° C. incubator for 1 h. The results of the assay were read using an Envision plate reader with the following parameters: TR_FRET, 340ex/615 and 665em; […].
Compound Ki was analyzed using Morrison ki fit model in XL-fit
[formula] [formula] • b. Parameters: • E=enzyme concentration • S=Tracer222 concentration, Kd=Tracer222 Kd
All measurements are reported using the same units (nM).
Exemplary compounds were tested in the binding assays.

Row | Ki | Structure (SMILES)
3 | 0.7 nM | Cc1c(N)cncc1-c1cc(N)c2nnc(NC(=O)[C@@H]3C[C@H]3C#N)cc2c1 (single isomer, unassigned) [Compound 23a]
4 | 4 nM | Cc1c(N)cncc1-c1cc(N)c2nnc(NC(=O)[C@H]3C[C@@H]3C#N)cc2c1 (single isomer, unassigned) [Compound 23b]
5 | 15 nM | Cc1cc(N)ncc1-c1cc(N)c2nnc(NC(=O)[C@@H]3C[C@@H]3F)cc2c1 [Compound 5a, (1S,2S)—N-(8-Amino-6-(6-amino-4-methylpyridin-3-yl)cinnolin-3-yl)-2-fluorocyclopropanecarboxamide]
6 | 440 nM | CCc1cc(N)c2nnc(NC(=O)[C@@H]3C[C@@H]3F)cc2c1 [Compound 6a, (1S,2S)-N-(8-Amino-6-ethylcinnolin-3-yl)-2-fluorocyclopropanecarboxamide]
7 | 53 nM | Cc1cnccc1-c1cc(N)c2nnc(NC(=O)[C@@H]3C[C@@H]3F)cc2c1 [Compound 17a, (1S,2S)—N-(8-Amino-6-(3-methylpyridin-4-yl)cinnolin-3-yl)-2-fluorocyclopropanecarboxamide]
8 | 15 nM | Cn1cc(-c2cc(N)c3nnc(NC(=O)[C@@H]4C[C@@H]4F)cc3c2)cn1 [Compound 18a, (1S,2S)—N-(8-Amino-6-(1-methyl-1H-pyrazol-4-yl)cinnolin-3-yl)-2-fluorocyclopropanecarboxamide]

The remaining lines, values behind:

Row | Structure (SMILES) | Ki
9 | N#Cc1ccncc1-c1cc(N)c2nnc(NC(=O)[C@@H]3C[C@@H]3F)cc2c1 (racemic) [Compound 4, (+/−)-cis-N-(8-Amino-6-(4-cyanopyridin-3-yl)cinnolin-3-yl)-2-fluorocyclopropanecarboxamide] | 600 nM
10 | Nc1cc(C2CC2)cc2cc(NC(=O)[C@@H]3C[C@@H]3F)nnc12 (racemic) [Compound 7, cis-N-(8-Amino-6-cyclopropylcinnolin-3-yl)-2-fluorocyclopropane carboxamide] | 600 nM
11 | Cc1cnsc1-c1cc(N)c2nnc(NC(=O)[C@@H]3C[C@@H]3F)cc2c1 (racemic) [Compound 15, (+/−)-cis-N-[8-Amino-6-(4-methylisothiazol-5-yl)cinnolin-3-yl]-2-fluoro-cyclopropanecarboxamide] | 3 nM
12 | Cn1cc(-c2cc(N)c3nnc(NC(=O)[C@@H]4C[C@H]4C#N)cc3c2)cn1 (racemic) [Compound 19, (+/−)-trans-N-(8-Amino-6-(1-methyl-1H-pyrazol-4-yl)cinnolin-3-yl)-2-cyanocyclopropanecarboxamide] | 14 nM
13 | CCc1ccncc1-c1cc(N)c2nnc(NC(=O)[C@@H]3C[C@H]3C#N)cc2c1 (racemic) [Compound 20, (+/−)-trans-N-(8-Amino-6-(4-ethylpyridin-3-yl)cinnolin-3-yl)-2-cyanocyclopropanecarboxamide] | 13 nM
14 | CCc1ccncc1-c1cc(N)c2nnc(NC(=O)[C@@H]3C[C@@H]3F)cc2c1 (racemic) [Compound 21, (+/−)-cis-N-(8-Amino-6-(4-ethylpyridin-3-yl)cinnolin-3-yl)-2-fluorocyclopropanecarboxamide] | 4 nM
15 | Nc1cc(-c2cnccc2C2CC2)cc2cc(NC(=O)[C@@H]3C[C@@H]3F)nnc12 (racemic) [Compound 22, (+/−)-cis-N-(8-Amino-6-(4-cyclopropylpyridin-3-yl)cinnolin-3-yl)-2-fluorocyclopropanecarboxamide] | 31 nM
16 | COc1ccncc1-c1cc(N)c2nnc(NC(=O)[C@@H]3C[C@@H]3F)cc2c1 [Compound 2a, (1S,2S)—N-(8-Amino-6-(4-methoxypyridin-3-yl)cinnolin-3-yl)-2-fluorocyclopropanecarboxamide] | 58 nM
17 | CC(C)OC(=O)Nc1cc2cc(-c3cnn(C)c3)cc(N)c2nn1 [Compound 9, Isopropyl N-[8-amino-6-(1-methylpyrazol-4-yl)cinnolin-3-yl]carbamate] | 28 nM
18 | Cn1cc(-c2cc(N)c3nnc(NC(=O)N4CCCC4)cc3c2)cn1 [Compound 10, N-[8-Amino-6-(1-methylpyrazol-4-yl)cinnolin-3-yl]pyrrolidine-1-carboxamide] | 65 nM
19 | CCc1ccncc1-c1cc(N)c2nnc(NC(=O)NC(C)C)cc2c1 [Compound 11, 1-[8-Amino-6-(4-ethyl-3-pyridyl)cinnolin-3-yl]-3-isopropyl-urea] | 8 nM
20 | Cc1ccncc1-c1cc(C)c2nnc(NC(=O)C3CC3)cc2c1 [Compound 24, N-(8-Methyl-6-(4-methylpyridin-3-yl)cinnolin-3-yl)cyclopropanecarboxamide] | 260 nM
21 | Cc1ccncc1-c1cc(N)c2nnc(NC(=O)C3CC3)cc2c1 [Compound 25, N-(8-Amino-6-(4-methylpyridin-3-yl)cinnolin-3-yl)cyclopropanecarboxamide] | 1.9 nM
22 | Cc1ccncc1-c1cc(Cl)c2nnc(NC(=O)C3CC3)cc2c1 [Compound 26, N-(8-Chloro-6-(4-methylpyridin-3-yl)cinnolin-3-yl)cyclopropanecarboxamide] | > 1000 nM
23 | Cc1ccncc1-c1ccc2nnc(NC(=O)C3CC3)cc2c1 [Compound 27, N-(6-(4-Methylpyridin-3-yl)cinnolin-3-yl)cyclopropanecarboxamide] | 510 nM

Tested on: primary human pan T cells
Experiment: Human T-cell IL2 Induction Assay
Type: cell-based
Conditions: assayed concentration 2.78 μM; anti-CD3/anti-CD28 stimulation
Procedure: Example B3: Human T-cell IL2 Induction Assay
Assay Principle: Anti-CD3 and anti-CD28 activates TCR signaling in primary human pan T cells leading to IL-2 promoter induction. Secreted IL-2 in cell culture supernatant is detected by electrochemiluminescence using a capture antibody against IL-2 and an anti-IL-2 antibody labeled with SULFO-tag. Also see www.mesoscale.com for additional electrochemiluminescence technology information.
Assay Procedure: Incubate primary human pan T cells with varying concentrations of test compounds for 30 minutes in a humidified incubator at 37° C. and 5% CO2. Transfer cells to a plate pre-coated with a fixed concentration of anti-human CD3 (determined separately for each donor lot) and add soluble anti-human CD28 (final concentration=1 μg/ml). Stimulate cells in a humidified incubator at 37° C. and 5% CO2 for 4 hours. Transfer 25 μl of supernatant to a MSD single spot plate pre-coated with an anti-human IL-2 antibody. Incubate MSD plate overnight at 4° C. with gentle shaking. Wash MSD plate 4× with wash buffer. […] Wash MSD plate 4× with wash buffer and add 150 μl 2×MSD read buffer. Read on an MSD instrument. […]
Exemplary compounds of Formula (I) were tested in the human T-cell IL-2 induction assays. The % increase measured for IL-2 in cells treated by the test compounds relative to untreated cells are provided in Table B2 for certain compounds.

Row | Structure (SMILES) | % IL-2 increase relative to untreated cells
24 | Cc1c(N)cncc1-c1cc(N)c2nnc(NC(=O)[C@@H]3C[C@H]3C#N)cc2c1 (single isomer, unassigned) [Compound 23a] | 538%

Same assay, conditions: assayed concentration 8.33 μM; anti-CD3/anti-CD28 stimulation

Row | Structure (SMILES) | % IL-2 increase relative to untreated cells
25 | Cc1ccncc1-c1cc(N)c2nnc(NC(=O)C3CC3)cc2c1 [Compound 25, N-(8-Amino-6-(4-methylpyridin-3-yl)cinnolin-3-yl)cyclopropanecarboxamide] | 192%
